From patent US8022102B2, “Unsaturated tetracyclic tetrahydrofuran derivatives” (Janssen Pharmaceutica, NV, priority 2004, dated 2011)
Like-named read-outs stand apart in the source and are kept apart here.

Key:
[1] = target: T1, human cloned 5-HT2A receptor (Homo sapiens, UniProt P28223); assay: In vitro binding affinity for 5-HT2A receptor (radioligand binding)
T1 construct: expressed in transfected cells; host or cells: L929 cells
Description: During the incubation, the radioligands bind to the receptor. When equilibrium of binding is reached, the receptor bound radioactivity is separated from the non-bound radioactivity, and the receptor bound activity is counted. The interaction of the test compounds with the receptors is assessed in competition binding experiments. Various concentrations of the test compound are added to the incubation mixture containing the tissue preparation and the radioligand. Binding of the radioligand will be inhibited by the test compound in proportion to its binding affinity and its concentration. The affinities of the compounds for the 5-HT2 receptors were measured by means of radioligand binding studies conducted with: (a) human cloned 5-HT2A receptor, expressed in L929 cells using [^125I]R91150 as radioligand and (b) human cloned 5-HT2C receptor, expressed in CHO cells using [^3H]mesulergine as radioligand.

[2] = target: T2, human cloned 5-HT2C receptor (Homo sapiens, UniProt P28335); assay: In vitro binding affinity for 5-HT2C receptor (radioligand binding)
T2 construct: expressed in transfected cells; host or cells: CHO cells
T2 sequence (P28335 33-458): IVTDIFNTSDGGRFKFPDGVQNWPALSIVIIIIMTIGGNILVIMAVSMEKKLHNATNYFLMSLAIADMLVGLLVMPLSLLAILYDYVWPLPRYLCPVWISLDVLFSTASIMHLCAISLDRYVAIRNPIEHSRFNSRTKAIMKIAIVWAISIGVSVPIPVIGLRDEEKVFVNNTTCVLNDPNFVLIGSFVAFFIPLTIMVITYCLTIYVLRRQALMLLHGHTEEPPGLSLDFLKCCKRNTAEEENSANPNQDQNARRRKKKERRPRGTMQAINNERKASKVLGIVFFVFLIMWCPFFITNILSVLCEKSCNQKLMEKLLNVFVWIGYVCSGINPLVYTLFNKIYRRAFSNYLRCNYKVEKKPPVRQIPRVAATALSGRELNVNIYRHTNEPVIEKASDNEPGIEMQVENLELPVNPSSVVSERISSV
Description: During the incubation, the radioligands bind to the receptor. When equilibrium of binding is reached, the receptor bound radioactivity is separated from the non-bound radioactivity, and the receptor bound activity is counted. The interaction of the test compounds with the receptors is assessed in competition binding experiments. Various concentrations of the test compound are added to the incubation mixture containing the tissue preparation and the radioligand. Binding of the radioligand will be inhibited by the test compound in proportion to its binding affinity and its concentration.

[3] = target: T3, human Dopamine D2L receptor (Homo sapiens, UniProt P14416); assay: In vitro binding affinity for human D2L receptor ([3H]Spiperone); conditions: human D2L receptor-transfected CHO cell membranes, [3H]Spiperone
T3 construct: expressed in transfected cells; host or cells: CHO cells
Description: Frozen membranes of human Dopamine D2L receptor-transfected CHO cells were thawed, briefly homogenised using an Ultra-Turrax T25 homogeniser and diluted in Tris-HCl assay buffer containing NaCl, CaCl2, MgCl2, KCl (50, 120, 2, 1, and 5 mM respectively, adjusted to pH 7.7 with HCl) to an appropriate protein concentration optimised for specific and non-specific binding. Radioligand [^3H]Spiperone (NEN, specific activity ˜70 Ci/mmol) was diluted in assay buffer at a concentration of 2 nmol/L. Prepared radioligand (50 μl), along with 50 μl of either the 10% DMSO control, Butaclamol (10^−6 mol/l final concentration), or compound of interest, was then incubated (30 min, 37° C.) with 400 μl of the prepared membrane solution. Membrane-bound activity was filtered through a Packard Filtermate harvester onto GF/B Unifilterplates and washed with ice-cold Tris-HCl buffer (50 mM; pH 7.7; 6×0.5 ml). Filters were allowed to dry before adding scintillation fluid and counting in a Topcount scintillation counter. Percentage specific bound and competition binding curves were calculated using S-Plus software (Insightful).

NET = target: T4, NET (Rattus norvegicus, UniProt Q9WTR4); assay: In vitro determination of NET reuptake inhibition ([3H]Nixosetine binding, rat brain cortex); conditions: rat brain cortex, [3H]Nixosetine
T4 construct: Cortex from rat brain was collected and homogenised; from tissue; host or cells: rat brain cortex
Description: Cortex from rat brain was collected and homogenised using an Ultra-Turrax T25 and a Dual homogeniser in ice-cold homogenising buffer containing Tris, NaCl and KCl (50 mM, 120 mM and 5 mM, respectively, pH 7.4) prior to dilution to an appropriate protein concentration optimised for specific and non-specific binding. […] Membrane-bound activity was detected by filtration through a Packard Filtermate harvester onto GF/B Unifilterplates, washed with ice-cold Tris-HCl buffer, containing NaCl and KCl (50 mM, 120 mM and 4 mM; pH 7.4; 6×0.5 ml). Filters were allowed to dry for 24 h before adding scintillation fluid. Scintillation fluid was allowed to saturate filters for 24 h before counting in a Topcount scintillation counter. Percentage specific bound and competition binding curves were calculated using S-Plus software (Insightful).

[4] = human cloned 5-HT2A receptor, radioligand binding, read-out: h-5HT2A (converted)
[5] = human cloned 5-HT2C receptor, radioligand binding, read-out: h-5HT2C (converted)
[6] = read-out: NET Reuptake Inhibition (converted)
[7] = h-5HT2A, human cloned 5-HT2A receptor, radioligand binding
[8] = h-5HT2C, human cloned 5-HT2C receptor, radioligand binding

T3 sequence (P14416 whole entry): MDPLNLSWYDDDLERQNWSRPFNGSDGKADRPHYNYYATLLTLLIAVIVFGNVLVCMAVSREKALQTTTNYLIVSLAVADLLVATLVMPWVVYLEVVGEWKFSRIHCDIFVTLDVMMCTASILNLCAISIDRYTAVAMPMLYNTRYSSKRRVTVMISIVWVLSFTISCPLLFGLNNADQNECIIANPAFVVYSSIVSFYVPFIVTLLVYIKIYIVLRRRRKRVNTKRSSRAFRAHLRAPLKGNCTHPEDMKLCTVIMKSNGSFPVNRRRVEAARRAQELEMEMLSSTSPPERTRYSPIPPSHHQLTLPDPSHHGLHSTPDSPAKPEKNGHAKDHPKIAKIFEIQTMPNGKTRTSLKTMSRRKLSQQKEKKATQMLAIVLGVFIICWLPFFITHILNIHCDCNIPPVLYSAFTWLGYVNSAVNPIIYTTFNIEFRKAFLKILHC
T1 sequence (P28223 whole entry): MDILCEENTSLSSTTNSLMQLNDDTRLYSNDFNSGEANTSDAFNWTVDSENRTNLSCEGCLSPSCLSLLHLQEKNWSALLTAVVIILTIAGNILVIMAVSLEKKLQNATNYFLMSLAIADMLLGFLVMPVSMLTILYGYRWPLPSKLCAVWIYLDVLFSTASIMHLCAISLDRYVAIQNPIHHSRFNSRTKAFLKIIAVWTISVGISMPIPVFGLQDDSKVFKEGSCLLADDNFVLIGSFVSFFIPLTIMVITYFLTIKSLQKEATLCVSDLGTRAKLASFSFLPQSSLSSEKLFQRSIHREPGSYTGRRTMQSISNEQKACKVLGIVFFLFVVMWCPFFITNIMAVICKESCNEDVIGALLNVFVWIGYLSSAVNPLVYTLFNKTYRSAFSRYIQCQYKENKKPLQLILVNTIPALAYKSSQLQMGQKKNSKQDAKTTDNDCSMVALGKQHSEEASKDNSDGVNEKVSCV
T4 sequence (Q9WTR4 1-597): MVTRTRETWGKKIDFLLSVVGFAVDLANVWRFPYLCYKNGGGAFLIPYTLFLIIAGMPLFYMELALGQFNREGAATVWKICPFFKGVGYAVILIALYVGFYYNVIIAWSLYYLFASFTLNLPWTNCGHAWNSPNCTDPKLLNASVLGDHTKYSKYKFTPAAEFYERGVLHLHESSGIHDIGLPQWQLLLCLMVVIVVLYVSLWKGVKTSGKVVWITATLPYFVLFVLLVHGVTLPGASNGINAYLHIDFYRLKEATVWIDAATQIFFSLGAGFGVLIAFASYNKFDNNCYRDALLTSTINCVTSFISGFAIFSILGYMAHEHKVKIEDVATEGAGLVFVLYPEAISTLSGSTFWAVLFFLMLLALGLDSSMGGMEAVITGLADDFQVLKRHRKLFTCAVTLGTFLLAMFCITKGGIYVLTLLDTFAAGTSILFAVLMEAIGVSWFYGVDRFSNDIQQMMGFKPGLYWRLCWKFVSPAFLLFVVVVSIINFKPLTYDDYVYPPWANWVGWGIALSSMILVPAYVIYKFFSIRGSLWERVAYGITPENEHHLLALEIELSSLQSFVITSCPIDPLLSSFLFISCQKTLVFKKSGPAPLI

Structure (SMILES)	IC50 [1, 4] [nM]	IC50 [2, 5] [nM]	IC50 ([3]; read-out: h-D2L (converted)) [nM]	IC50 (NET; [6]) [nM]	IC50 ([1]; human cloned 5-HT2A receptor expressed in L929 cells, [125I]R91150, read-out: h-5HT2A (converted)) [nM]	IC50 ([2]; human cloned 5-HT2C receptor expressed in CHO cells, [3H]mesulergine, read-out: h-5HT2C (converted)) [nM]	IC50 [1, 7] [nM]	IC50 [2, 8] [nM]	IC50 ([3]; h-D2L) [nM]	IC50 (NET; NET Reuptake Inhibition) [nM]
CNC[C@@H]1CC2=C(O1)c1ccccc1[C@@H](C)c1ccccc12 (racemic) [Compound 9]	100	50.1	3980	79.4	–	–	–	–	–	–
CNCC1CC2=C(O1)c1cc(F)ccc1Cc1ccccc12 (stereo not drawn) [Compound 2]	0.631	1	79.4	15.8	–	–	–	–	–	–
CNC[C@H]1CC2=C(O1)c1cc(F)ccc1Cc1ccccc12 [Compound 3]	6.31	6.31	398	15.8	–	–	–	–	–	–
CNC[C@@H]1CC2=C(O1)c1cc(F)ccc1Cc1ccccc12 [Compound 4]	0.501	0.631	63.1	10	0.501	0.631	–	–	–	–
CNCC1CC2=C(O1)c1ccccc1C(C)c1ccccc12 (stereo not drawn) [Compound 7]	50.1	20	2000	63.1	–	–	–	–	–	–
C=C1c2ccccc2C2=C(OC(CNC)C2)c2ccccc21 (stereo not drawn) [Compound 11]	39.8	20	1580	25.1	–	–	–	–	–	–
CNCC1CC2=C(O1)c1cc(F)ccc1Oc1ccccc12 (stereo not drawn) [Compound 12]	12.6	7.94	200	39.8	–	–	–	–	–	–
CN(C)CC1CC2=C(O1)c1ccccc1N(C)c1ccccc12 (stereo not drawn) [Compound 29]	316	126	6310	79.4	–	–	–	–	–	–
CCS(=O)(=O)N1CCN(CC2CC3=C(O2)c2cc(F)ccc2Oc2ccccc23)CC1 (stereo not drawn) [Compound 47]	158	200	1260	398	–	–	–	–	–	–
O=S(=O)(c1ccccc1)N1CCN(CC2CC3=C(O2)c2cc(F)ccc2Cc2ccccc23)CC1 (stereo not drawn) [Compound 48]	398	200	3160	> 10000	–	–	–	–	–	–
Cc1ccc(S(=O)(=O)N2CCN(CC3CC4=C(O3)c3cc(F)ccc3Oc3ccccc34)CC2)cc1 (stereo not drawn) [Compound 50]	200	316	2000	1580	–	–	–	–	–	–
COC(=O)CC(=O)N1CCN(CC2CC3=C(O2)c2cc(F)ccc2Oc2ccccc23)CC1 (stereo not drawn) [Compound 60]	–	79.4	2000	1580	–	–	–	–	–	–
CC(C)OC(=O)N1CCN(CC2CC3=C(O2)c2cc(F)ccc2Cc2ccccc23)CC1 (stereo not drawn) [Compound 63]	251	501	3980	> 10000	–	–	–	–	–	–
O=C(Oc1ccccc1)N1CCN(CC2CC3=C(O2)c2cc(F)ccc2Cc2ccccc23)CC1 (stereo not drawn) [Compound 65]	–	–	–	–	–	–	50.1	126	1000	3160
O=C(Oc1ccccc1)N1CCN(CC2CC3=C(O2)c2cc(F)ccc2Oc2ccccc23)CC1 (stereo not drawn) [Compound 66]	–	–	–	–	–	–	126	316	794	1260
COc1ccc(OC(=O)N2CCN(CC3CC4=C(O3)c3cc(F)ccc3Cc3ccccc34)CC2)cc1 (stereo not drawn) [Compound 67]	–	–	–	–	–	–	20	50.1	398	3160
COc1ccc(OC(=O)N2CCN(CC3CC4=C(O3)c3cc(F)ccc3Oc3ccccc34)CC2)cc1 (stereo not drawn) [Compound 68]	–	–	–	–	–	–	63.1	251	794	1580
O=C(OCc1ccccc1)N1CCN(CC2CC3=C(O2)c2cc(F)ccc2Cc2ccccc23)CC1 (stereo not drawn) [Compound 69]	501	1000	1260	7940	–	–	–	–	–	–
O=C(OCc1ccccc1)N1CCN(CC2CC3=C(O2)c2cc(F)ccc2Oc2ccccc23)CC1 (stereo not drawn) [Compound 70]	1000	631	251	> 10000	–	–	–	–	–	–
O=C(c1ccccc1)N1CCN(CC2CC3=C(O2)c2cc(F)ccc2Cc2ccccc23)CC1 (stereo not drawn) [Compound 71]	6.31	15.8	126	5010	–	–	–	–	–	–
O=C(c1ccccc1)N1CCN(CC2CC3=C(O2)c2cc(F)ccc2Oc2ccccc23)CC1 (stereo not drawn) [Compound 72]	25.1	63.1	398	6310	–	–	–	–	–	–
O=C(Nc1ccc(F)cc1)N1CCN(CC2CC3=C(O2)c2cc(F)ccc2Oc2ccccc23)CC1 (stereo not drawn) [Compound 86]	–	39.8	251	> 10000	–	–	–	–	–	–
O=C(NCc1ccccc1)N1CCN(CC2CC3=C(O2)c2cc(F)ccc2Cc2ccccc23)CC1 (stereo not drawn) [Compound 87]	631	100	794	7940	–	–	–	–	–	–
O=C(NCc1ccccc1)N1CCN(CC2CC3=C(O2)c2cc(F)ccc2Oc2ccccc23)CC1 (stereo not drawn) [Compound 88]	158	100	1260	1580	–	–	–	–	–	–
COC(=O)CC(=O)N(C)C[C@H]1CC2=C(O1)c1cc(F)ccc1Cc1ccccc12 [Compound 112]	200	63.1	–	7940	–	–	–	–	–	–
CNCC1CC2=C(O1)c1ccccc1Cc1cccc(F)c12 (stereo not drawn) [Compound 132]	10	3.98	–	63.1	–	–	–	–	–	–
CNCC1CC2=C(O1)c1ccccc1Cc1ccc(C#N)cc12 (stereo not drawn) [Compound 133]	25.1	–	2040	316	–	–	–	–	–	–
